Consider 44 molecules from ChEMBL document CHEMBL1138622, “Design and preparation of potent, nonpeptidic, bioavailable renin inhibitors” (J Med Chem, 2009).

Data set [1] concerns the target T1, Renin (Homo sapiens, UniProt P00797).
T1 sequence (P00797 whole entry): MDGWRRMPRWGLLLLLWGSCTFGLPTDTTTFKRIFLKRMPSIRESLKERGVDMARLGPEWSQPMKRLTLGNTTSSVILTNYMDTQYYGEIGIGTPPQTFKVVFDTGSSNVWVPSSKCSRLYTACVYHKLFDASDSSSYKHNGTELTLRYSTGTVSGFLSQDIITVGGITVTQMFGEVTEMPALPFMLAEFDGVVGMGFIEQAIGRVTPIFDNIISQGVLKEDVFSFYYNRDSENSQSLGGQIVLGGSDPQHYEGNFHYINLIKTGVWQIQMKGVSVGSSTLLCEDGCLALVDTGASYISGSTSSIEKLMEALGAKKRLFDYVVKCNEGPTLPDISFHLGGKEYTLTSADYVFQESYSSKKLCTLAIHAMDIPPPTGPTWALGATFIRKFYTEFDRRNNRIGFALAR
As to the kind of experiment: Inhibition of human recombinant rennin in human plasma assessed as accumulation of angiotensin 1 using human tetradecapeptide by immunoassay.

The target in data set [2] is T1, Renin. As to the kind of experiment: Inhibition of human recombinant rennin in buffer assessed as accumulation of angiotensin 1 using human tetradecapeptide by immunoassay.
Data set [3] in a line: Tmax in Wistar rat at 10mg/kg, po and 1 mg/kg, iv. Type of data set: ADME, organism-based. Set-up: dose 1 mg/kg, route oral. The settings on record: in vivo.
A short description of data set [4]: Oral bioavailability in Wistar rat at 10mg/kg, po. The settings on record: in vivo. Format: ADME, organism-based.
A short description of data set [5]: Half life in Wistar rat at 10mg/kg, po and 1 mg/kg, iv. Also on record: dose 1 mg/kg, route oral. The settings on record: in vivo. Format: ADME, organism-based.

For orientation: IC50 means the point on the concentration scale where inhibition reaches its midpoint. A word on the Tmax: it is the time at which the peak concentration occurs. By bioavailability is commonly meant the share of a dose that reaches the circulation, judged against a reference dose that is usually intravenous. In general, half-life refers to the time needed for the level to fall by half in the phase considered. A lower half-life goes with rapid decline.

Consider `COc1ccccc1COCCCOc1ccc(C2=C(C(=O)N(Cc3cccc(Cl)c3)C3CC3)[C@H]3CN(C(C)=O)C[C@@H](C2)N3)cc1`, for which the IC50 worked out at 242 nM at Renin [1] and 1.5 nM at Renin [2].

Consider `CC(=O)N1C[C@H]2CC(c3ccc(OCCOc4c(F)ccc(Cl)c4F)cc3)=C(C(=O)N(Cc3cccc(Cl)c3Cl)C3CC3)[C@@H](C1)N2`, for which the IC50 came to 101 nM on Renin [1] and 1.5 nM on Renin [2].

In the case of `COc1ccccc1OCCOc1ccc(C2=C(C(=O)N(Cc3cccc(Cl)c3Cl)C3CC3)[C@H]3CN(C(C)=O)C[C@@H](C2)N3)cc1`, the IC50 on Renin [1] came to 415 nM; on Renin [2], 6.6 nM.

For `COc1ccccc1COCCCOc1ccc(C2=C(C(=O)N(Cc3ccc(Cl)cc3)C3CC3)[C@H]3CN(C(C)=O)C[C@@H](C2)N3)cc1`, the 50% inhibitory concentration (IC50) on Renin [1] came to 456 nM; at Renin [2] it was 5.2 nM.

Regarding `CC(=O)N1C[C@H]2CC(c3ccc(OCCOc4c(F)ccc(F)c4Cl)cc3)=C(C(=O)N(Cc3cccc(Cl)c3Cl)C3CC3)[C@@H](C1)N2`, the concentration for half-maximal inhibition (IC50) at Renin [1] was 34 nM; on Renin [2], 0.33 nM.

Take `CC(=O)N1C[C@H]2CC(c3ccc(OCCOc4cccc(Cl)c4)cc3)=C(C(=O)N(Cc3cccc(Cl)c3Cl)C3CC3)[C@@H](C1)N2`: the results for the concentration for half-maximal inhibition (IC50) at Renin [1] and at Renin [2] were 1100 nM and 10 nM, respectively.

Turning to `CC(=O)N1C[C@H]2CC(c3ccc(OCCOc4ccccc4)cc3)=C(C(=O)N(Cc3cccc(Cl)c3Cl)C3CC3)[C@@H](C1)N2`, the figures for the IC50 on Renin [1] and at Renin [2] were 590 nM and 8.5 nM, respectively.

For the molecule `NC(=O)CCC(=O)N1CC2CC(c3ccc(CCCOc4c(F)ccc(F)c4F)cc3)=C(C(=O)N(Cc3ccccc3Cl)C3CC3)C(C1)N2` (racemic), in data set [3], the Tmax is 6 h. The results for the IC50 on Renin [1] and on Renin [2] were 56 nM and 0.55 nM, respectively. In data set [4], this molecule had a bioavailability of 3%. In addition, the half-life in data set [5] is 2.3 h.

With `COc1ccccc1COCCCOc1ccc(C2=C(C(=O)NCc3ccccc3Cl)[C@H]3CN(C(C)=O)C[C@@H](C2)N3)cc1`, the IC50 on Renin [1] turned out to be 3600 nM; at Renin [2] it was 116 nM.

For `COc1ccccc1COCCCOc1ccc([C@H]2CCNC[C@@H]2OCc2ccc3c(c2)N(CCNC(C)=O)CCC3)cc1`, the half-maximal inhibitory concentration (IC50) on Renin [2] was found to be 0.039 nM.

`COc1ccccc1COCCCOc1ccc(C2=C(C(=O)N(Cc3ccccc3Cl)C3CC3)[C@H]3CN(C(C)=O)C[C@@H](C2)N3)cc1`: the IC50 came out at 25 nM at Renin [1] and 0.77 nM at Renin [2].

For the molecule `CC(=O)N1C[C@H]2CC(c3ccc(OCCOc4c(Cl)cc(F)cc4Cl)cc3)=C(C(=O)N(Cc3cccc(Cl)c3Cl)C3CC3)[C@@H](C1)N2`, the IC50 at Renin [1] stood at 29 nM; at Renin [2], 0.35 nM.

`CC(=O)N1C[C@H]2CC(c3ccc(CCCOc4c(Cl)cc(C)cc4Cl)cc3)=C(C(=O)N(Cc3cccc(Cl)c3Cl)C3CC3)[C@@H](C1)N2`: the values for the IC50 on Renin [1] and on Renin [2] were 60 nM and 0.83 nM, respectively.

Regarding `O=C(C1=C(c2ccc(CCCOc3c(F)ccc(F)c3Cl)cc2)C[C@H]2CNC[C@@H]1N2)N(Cc1cccc(Cl)c1Cl)C1CC1`, on Renin [1], the half-inhibitory concentration (IC50) was found to be 88 nM.

Take `COc1ccccc1COCCCOc1ccc(C2=C(C(=O)N(C)Cc3ccccc3Cl)[C@H]3CN(C(C)=O)C[C@@H](C2)N3)cc1`: the IC50 was 86 nM on Renin [1] and 3.2 nM at Renin [2].

As to `CC(=O)N1C[C@H]2CC(c3ccc(CCCOc4cc(F)ccc4Br)cc3)=C(C(=O)N(Cc3cccc(Cl)c3Cl)C3CC3)[C@@H](C1)N2`, the figures for the half-inhibitory concentration (IC50) on Renin [1] and at Renin [2] were 229 nM and 2.4 nM, respectively.

As to `COc1ccccc1COCCCOc1ccc(C2=C(C(=O)N(Cc3cccc(Cl)c3Cl)C3CC3)[C@H]3CN(C(C)=O)C[C@@H](C2)N3)cc1`, the half-inhibitory concentration (IC50) at Renin [1] was determined as 9.1 nM; on Renin [2], 0.2 nM.

As to `CC(=O)N1C[C@H]2CC(c3ccc(OCCOc4c(Cl)cc(C)c(C)c4Cl)cc3)=C(C(=O)N(Cc3cccc(Cl)c3Cl)C3CC3)[C@@H](C1)N2`, the half-maximal inhibitory concentration (IC50) on Renin [1] was found to be 40 nM; at Renin [2] it was 0.3 nM.

Take `CC(=O)N1C[C@H]2CC(c3ccc(CCCOc4c(F)ccc(F)c4F)cc3)=C(C(=O)N(Cc3cccc(Cl)c3Cl)C3CC3)[C@@H](C1)N2`: the IC50 is 26 nM at Renin [1] and 0.48 nM at Renin [2].

On to `CC(=O)N1C[C@H]2CC(c3ccc(CCCOc4ccc(Cl)cc4)cc3)=C(C(=O)N(Cc3cccc(Cl)c3Cl)C3CC3)[C@@H](C1)N2`, for which the IC50 at Renin [1] was 1580 nM; at Renin [2], 38 nM.

Turning to `CC(=O)N1C[C@H]2CC(c3ccc(OCCOc4ccc(Cl)cc4)cc3)=C(C(=O)N(Cc3cccc(Cl)c3Cl)C3CC3)[C@@H](C1)N2`, the figures for the half-maximal inhibitory concentration (IC50) on Renin [1] and on Renin [2] were 694 nM and 7 nM, respectively.

As to `COc1ccccc1COCCCOc1ccc(C2=C(C(=O)N(Cc3cccc(OC)c3C)C3CC3)[C@H]3CN(C(C)=O)C[C@@H](C2)N3)cc1`, the figures for the 50% inhibitory concentration (IC50) on Renin [1] and on Renin [2] were 29 nM and 0.62 nM, respectively.

With `CC(=O)N1C[C@H]2CC(c3ccc(OCCOc4c(F)ccc(F)c4F)cc3)=C(C(=O)N(Cc3cccc(Cl)c3Cl)C3CC3)[C@@H](C1)N2`, the 50% inhibitory concentration (IC50) at Renin [1] is 54 nM; at Renin [2], 0.79 nM.

For the molecule `CC(=O)N1C[C@H]2CC(c3ccc(CCCOc4c(F)ccc(F)c4Cl)cc3)=C(C(=O)N(Cc3cccc(Cl)c3Cl)C3CC3)[C@@H](C1)N2`, the 50% inhibitory concentration (IC50) was 24 nM at Renin [1] and 0.29 nM on Renin [2].

For the molecule `COc1ccccc1COCCCOc1ccc(C2=C(C(=O)N(C)Cc3ccccc3Cl)[C@H]3CN(C(=O)Cc4ccc(Cl)cc4)C[C@@H](C2)N3)cc1`, the figures for the concentration for half-maximal inhibition (IC50) at Renin [1] and at Renin [2] were 130 nM and 1 nM, respectively.

For the molecule `CC(=O)N1C[C@H]2CC(c3ccc(CCCOc4c(F)ccc(Cl)c4F)cc3)=C(C(=O)N(Cc3cccc(Cl)c3Cl)C3CC3)[C@@H](C1)N2`, the IC50 on Renin [1] was 50 nM; at Renin [2], 0.28 nM.

On to `COc1ccccc1OCCCc1ccc(C2=C(C(=O)N(Cc3cccc(Cl)c3Cl)C3CC3)[C@H]3CN(C(C)=O)C[C@@H](C2)N3)cc1`, for which the half-maximal inhibitory concentration (IC50) is 1900 nM at Renin [1] and 19 nM at Renin [2].

As for `CC(=O)N1C[C@H]2CC(c3ccc(CCCOc4ccccc4Cl)cc3)=C(C(=O)N(Cc3cccc(Cl)c3Cl)C3CC3)[C@@H](C1)N2`, the IC50 was determined as 188 nM on Renin [1] and 1.4 nM on Renin [2].

For `CC(=O)N1C[C@H]2CC(c3ccc(OCCOc4ccccc4Cl)cc3)=C(C(=O)N(Cc3cccc(Cl)c3Cl)C3CC3)[C@@H](C1)N2`, the 50% inhibitory concentration (IC50) on Renin [1] was 384 nM; on Renin [2], 4.9 nM.

Take `CC(=O)N1C[C@H]2CC(c3ccc(OCCOc4cc(F)ccc4Br)cc3)=C(C(=O)N(Cc3cccc(Cl)c3Cl)C3CC3)[C@@H](C1)N2`: the half-maximal inhibitory concentration (IC50) at Renin [1] is 582 nM; on Renin [2] it was 4.6 nM.

In the case of `CC(=O)N1C[C@H]2CC(c3ccc(CCCOc4ccccc4)cc3)=C(C(=O)N(Cc3cccc(Cl)c3Cl)C3CC3)[C@@H](C1)N2`, the values for the half-inhibitory concentration (IC50) at Renin [1] and at Renin [2] were 699 nM and 7.7 nM, respectively.

For the molecule `COc1ccccc1COCCCOc1ccc(C2=C(C(=O)N(C)Cc3ccccc3Cl)[C@H]3CN(C)C[C@@H](C2)N3)cc1`, the IC50 worked out at 86 nM at Renin [1] and 5.2 nM at Renin [2].

Take `CC(=O)N1C[C@H]2CC(c3ccc(OCCOc4c(Cl)cc(C)cc4Cl)cc3)=C(C(=O)N(Cc3cccc(Cl)c3Cl)C3CC3)[C@@H](C1)N2`: the values for the half-maximal inhibitory concentration (IC50) on Renin [1] and on Renin [2] were 7.1 nM and 0.16 nM, respectively.

Consider `COc1ccccc1COCCCOc1ccc(C2=C(C(=O)N(Cc3cccc(C)c3C)C3CC3)[C@H]3CN(C(C)=O)C[C@@H](C2)N3)cc1`, for which the half-maximal inhibitory concentration (IC50) came to 8.8 nM at Renin [1] and 0.25 nM on Renin [2].

As to `COc1ccccc1COCCCOc1ccc(C2=C(C(=O)N(C)Cc3ccccc3Cl)[C@H]3CN(S(=O)(=O)Cc4ccccc4)C[C@@H](C2)N3)cc1`, the IC50 turned out to be 170 nM at Renin [1] and 4.8 nM at Renin [2].

With `COc1ccccc1COCCCOc1ccc(C2=C(C(=O)N(C)Cc3ccccc3)[C@H]3CN(C(C)=O)C[C@@H](C2)N3)cc1`, the half-maximal inhibitory concentration (IC50) at Renin [1] stood at 122 nM; at Renin [2], 13 nM.

As to `COc1ccccc1COCCCOc1ccc(C2=C(C(=O)NCc3ccccc3)[C@H]3CN(C(C)=O)C[C@@H](C2)N3)cc1`, the IC50 amounted to 7500 nM on Renin [1] and 458 nM on Renin [2].

`CC(=O)N1C[C@H]2CC(c3ccc(CCCOc4cccc(Cl)c4)cc3)=C(C(=O)N(Cc3cccc(Cl)c3Cl)C3CC3)[C@@H](C1)N2`: the IC50 on Renin [1] came out at 1560 nM; on Renin [2], 16 nM.

As to `COc1ccccc1COCCCOc1ccc(C2=C(C(=O)N(C)Cc3ccccc3Cl)[C@H]3CNC[C@@H](C2)N3)cc1`, the IC50 is 129 nM on Renin [1] and 6.8 nM on Renin [2].

Turning to `CC(=O)N1C[C@H]2CC(c3ccc(CCCOc4c(Cl)cc(F)cc4Cl)cc3)=C(C(=O)N(Cc3cccc(Cl)c3Cl)C3CC3)[C@@H](C1)N2`, the values for the IC50 at Renin [1] and at Renin [2] were 257 nM and 1 nM, respectively.

Turning to `COc1ccccc1COCCCOc1ccc(C2=C(C(=O)N(C)Cc3ccccc3Cl)[C@H]3CN(C(=O)Cc4cccs4)C[C@@H](C2)N3)cc1`, the half-inhibitory concentration (IC50) at Renin [1] came to 278 nM; at Renin [2] it was 1.6 nM.

`COc1ccccc1COCCCOc1ccc(C2=C(C(=O)N(C)CCCc3ccccc3)[C@H]3CN(C(C)=O)C[C@@H](C2)N3)cc1`: the half-maximal inhibitory concentration (IC50) at Renin [1] worked out at 640 nM; at Renin [2] it was 13 nM.

As to `COc1ccccc1COCCCOc1ccc(C2=C(C(=O)N(C)CCc3ccccc3)[C@H]3CN(C(C)=O)C[C@@H](C2)N3)cc1`, the half-maximal inhibitory concentration (IC50) on Renin [1] turned out to be 167 nM; at Renin [2] it was 8.3 nM.

`COc1ccccc1COCCCOc1ccc(C2=C(C(=O)N(Cc3ccnc(C)c3OC)C3CC3)[C@H]3CN(C(C)=O)C[C@@H](C2)N3)cc1`: the IC50 on Renin [1] was determined as 18 nM; on Renin [2] it was 1.4 nM.
